Experimental data from paper PMC6332312, “N-Monosubstituted Methoxy-oligo(ethylene glycol) Carbamate Ester Prodrugs of Resveratrol” (Molecules, 2015).

What was measured:
[1] = Hydrolysis in PBS 0.1 M at pH 6.8 (intestinal pH), 37 °C; assay type: physicochemical; conditions: pH 6.8, 37 °C; for half-life at 5 µM: 0.1 M PBS buffer, 5 µM compound; for kII (hydrolysis rate constant, di- to monosubstituted) / kIII (hydrolysis rate constant, tri- to disubstituted): pseudo-first order fit
Experimental: (§1) Kinetic analysis of the data was performed by assuming that hydrolysis to resveratrol occurred via consecutive losses of the three protecting groups in pseudo-first order processes and by considering each pair of isomeric intermediates (potentially) resulting from the first and second hydrolysis steps as a single species, i.e. the two monosubstituted and the two disubstituted intermediates were handled as species I and II, respectively (Scheme 3).
As hydrolysis proceeds resveratrol will eventually form with the kinetics dictated by the constants, up to 100% conversion. The fit of the experimental data was obtained using a set of equations analogous to those utilized by Kozerski et al. and in our previous work.
The chemical stability of all new compounds was tested in aqueous media imitating gastric (0.1 N HCl, NormaFix) and intestinal (0.1 M PBS buffer, at pH 6.8) pH conditions. A 5 µM solution of the compound was prepared from a 5 mM stock solution in DMSO, and incubated at 37 °C for 24 h; samples withdrawn at different times were analyzed by HPLC-UV. Hydrolysis products were identified by HPLC/ESI-MS analysis of selected samples. Non-linear curve fitting was performed using Origin 8.0 data analysis software, using the equations described in [61, 62].

[2] = Stability (hydrolysis) in rodent whole blood, 37 °C; assay type: in vitro ADME; conditions: rat blood; for kIII (hydrolysis rate constant, tri- to disubstituted): pseudo-first order fit; for half-life at 5 µM: whole blood, 5 µM compound
Experimental: as §1
Rats were anesthetized and blood was withdrawn from the jugular vein, heparinised and transferred into tubes containing EDTA. Blood samples (1 mL) were spiked with 5 µM compound (dilution from a 5 mM stock solution in DMSO), and incubated at 37 °C for 4 h (the maximum period allowed by blood stability). Aliquots were taken after 10 min, 30 min, 1 h, 2 h and 4 h and treated as described below (blood sample treatment and analysis). Cleared blood samples were finally subjected to HPLC-UV analysis.
(§2) Before starting the treatment, 4,4′-dihydroxybiphenyl was added as internal standard to a carefully-measured blood volume (25 µM final concentration). Blood was then stabilized with a freshly-prepared 10 mM solution of ascorbic acid (0.1 vol) and acidified with 0.6 M acetic acid (0.1 vol); after mixing, an excess of acetone (4 vol) was added, followed by sonication (2 min) and centrifugation (12,000× g, 7 min, 4 °C). The supernatant was finally collected and stored at −20 °C. Before analysis, acetone was allowed to evaporate at room temperature using a Univapo 150H (UniEquip, Martinsried, Germany) vacuum concentrator centrifuge, and up to 40 μL of CH3CN were added to precipitate residual proteins. After centrifugation (12,000× g, 5 min, 4 °C), cleared samples were directly subjected to HPLC-UV analysis. Metabolites and hydrolysis products were identified by comparison of chromatographic retention time with true samples.

[3] = Pharmacokinetic study after single intragastric bolus to rats; assay type: in vivo, male Wistar rats; conditions: rat, single intragastric bolus 88 µmol/kg; for Tmax: male, Wistar, whole blood, po, 88 umol/kg, read-out: time of peak blood level after administration (converted); for peak blood concentration of prodrug (absorption): N = 3
Experimental: All the N-monosubstituted methoxy-oligo(ethylene glycol) carbamate ester prodrugs were tested for their in vivo absorption and metabolism. Pharmacokinetic studies were performed with rats, and each compound was administered as a single intragastric bolus, in an equimolar dose/kg body weight (88 µmol/kg). Blood samples were taken at different time points, treated as described in the Materials and Methods section and analyzed.
as §2
Derivatives 2–4 were administered to overnight-fasted male Wistar rats from the facility of the Department of Biomedical Sciences, University of Padova, as a single intragastric dose (88 µmol/kg, dissolved in 250 µL DMSO) delivered with a commercial stainless steel feeding tube (www.2biol.com) to have a precise starting time. Wistar rats are commonly used for such studies (e.g., [60]). Relatively young adults (3–5 months) were used in order to have a fully developed metabolism as well as a body weight (300–400 g) which would limit the amount of synthetic compound to be used.
Blood samples were obtained by the tail bleeding technique: before drug administration, rats were anesthetized with isoflurane and the tip of the tail was cut off; blood samples (80–100 µL each) were then taken from the tail tip at different time points after drug administration. Blood was collected in heparinized tubes, kept in ice and treated as described above within 10 min. All experiments involving animals were performed with the permission and supervision of the University of Padova Ethical Committee for Experimentation on Animals (CEASA) and Central Veterinary Service, in compliance with Italian Law DL 116/92, embodying EU Directive 86/609. Significance in comparisons was assessed using the Wilcoxon Rank Test.

| SMILES | half-life at 5 µM [1] [min] | kII (hydrolysis rate constant, di- to monosubstituted) [1] [h⁻¹] | kIII (hydrolysis rate constant, tri- to disubstituted) [1] [h⁻¹] | kIII (hydrolysis rate constant, tri- to disubstituted) [2] [h⁻¹] | half-life at 5 µM [2] [min] | appearance of resveratrol, derivatives or metabolites (stilbene derivatives) in blood samples [3] | Tmax [3] [min] | peak blood concentration of prodrug (absorption) [3] [µM] |
| --- | --- | --- | --- | --- | --- | --- | --- | --- |
| COCCOCCOCCNC(=O)Oc1ccc(/C=C/c2cc(OC(=O)NCCOCCOCCOC)cc(OC(=O)NCCOCCOCCOC)c2)cc1 [Compound 2, (E)-5-(4-(2-(2-(2-Methoxyethoxy)ethoxy)ethyl)carbamate)-1,3-phenylene bis((2-(2-(2-methoxyethoxy)ethoxy)ethyl)carbamate)] | 360 | 0.030 ± 0.002 | 0.104 ± 0.002 | 1.47 ± 0.08 | 30 | did not result in the appearance of detectable amounts |  |  |
| COCCOCCOCCOCCNC(=O)Oc1ccc(/C=C/c2cc(OC(=O)NCCOCCOCCOCCOC)cc(OC(=O)NCCOCCOCCOCCOC)c2)cc1 [Compound 3, (E)-5-(4-(5,8,11-Tetraoxatridecan-13-ylcarbamate)styryl)-1,3-phenylene bis(2,5,8,11-tetraoxatridecan-13-ylcarbamate)] | 210 | 0.042 ± 0.005 | 0.134 ± 0.007 | 2.0 ± 0.2 | 18 | measurable levels | 10 | 0.3 |
| COCCOCCOCCOCCOCCOCCNC(=O)Oc1ccc(/C=C/c2cc(OC(=O)NCCOCCOCCOCCOCCOCCOC)cc(OC(=O)NCCOCCOCCOCCOCCOCCOC)c2)cc1 [Compound 4, (E)-5-(4-(2,5,8,11,14,17-Hexaoxanonadecan-19-ylcarbamate)styryl)-1,3-phenylene bis(2,5,8,11,14,17-hexaoxanonadecan-19-ylcarbamate)] | 270 | 0.051 ± 0.001 | 0.158 ± 0.002 | 1.25 ± 0.08 | 30 | measurable levels | 10 | 0.1 |
